Measured values taken from patent publication US20020115640A1, “Farnesyltransferase inhibitors” (priority 2000, published 2002).

Target: T1, farnesyltransferase (Rattus norvegicus, UniProt Q02293+Q04631)
T1 construct: The enzyme can be purified according to Cell, 62: 81-88 (1990), utilizing steps one, two, and three; from tissue; host or cells: rat brain
Assay: Inhibition of farnesyltransferase (3H-farnesyldiphosphate / H-Ras filter assay)
Format: biochemical
Conditions: test compound at 10^−7 M; 3H-farnesyldiphosphate 0.6 μM, H-Ras 5.0 μM, 37° C., 30 minutes
Description: The ability of the compounds of the present invention to inhibit farnesyltransferase can be measured according to the method described in J. Biol. Chem., 266: 14603 (1991) or J. Biol. Chem., 270:660-664 (1995). Procedures for determination of the inhibition of farnesylation of the oncogene protein Ras are described in J. Biol. Chem., 266:15575-15578 (1991) and U.S. Pat. No. 5,245,061. Inhibition of rat brain farnesyltransferase can also be measured in vitro using an Amersham Life Science commercial scintillation proximity assay kit and substituting a biotin-K Ras B fragment (0.1 μM final concentration) for the biotin-lamin substrate provided by Amersham. The enzyme can be purified according to Cell, 62: 81-88 (1990), utilizing steps one, two, and three. […] The percent inhibition of the farnesylation caused by the compounds of the present invention (at 10^−6 M) compared to an uninhibited control sample can be evaluated in the same Amersham test system.
The mixture was brought to 37° C., treated with enzyme, incubated for 30 minutes, treated with 1 M HCl/ethanol (1 mL) to stop the reaction, stirred for 15 minutes at room temperature, diluted with ethanol (2 mL), filtered through a 2.5 cm glass microfiber filter (Whatman) with ethanol rinses (4×2 mL). The glass transferred to a scintillation vial and treated with scintillation fluid (5 mL). The radioisotope retained on the glass fiber filter was counted and reflected the activity of the enzyme.

T1 sequence (Q02293 whole entry, one chain of several): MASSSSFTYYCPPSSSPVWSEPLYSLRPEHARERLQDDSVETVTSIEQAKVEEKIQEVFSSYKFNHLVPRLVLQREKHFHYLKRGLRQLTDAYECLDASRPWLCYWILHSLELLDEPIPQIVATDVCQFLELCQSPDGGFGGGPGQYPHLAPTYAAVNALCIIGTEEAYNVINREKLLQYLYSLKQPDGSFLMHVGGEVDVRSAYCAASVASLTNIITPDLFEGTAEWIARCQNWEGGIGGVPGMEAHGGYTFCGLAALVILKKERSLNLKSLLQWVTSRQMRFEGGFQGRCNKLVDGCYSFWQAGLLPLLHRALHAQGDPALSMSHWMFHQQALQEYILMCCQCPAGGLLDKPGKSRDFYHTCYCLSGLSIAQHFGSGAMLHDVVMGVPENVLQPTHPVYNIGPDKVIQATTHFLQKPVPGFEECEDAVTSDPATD

With “4-(((5-chloro-4′-(trifluoromethyl)(1,1′-biphenyl)-2-yl)methoxy)(1-methyl-1H-imidazol-5-yl)methyl)benzonitrile [Example 26]” the “% Inhibition at 10^−7 M” value was 98%.

First: Cn1cncc1C(OCc1ccc(Cl)cc1I)c1ccc(C#N)cc1 (centres unmarked) [Example 1, 4-(((4-chloro-2-iodobenzyl)oxy)(1-methyl-1H-imidazol-5-yl)methyl)benzonitrile]
Second: Cn1cncc1C(OCc1ccc(Cl)cc1-c1ccc(Cl)c(Cl)c1)c1ccc(C#N)cc1 (centres unmarked) [Example 28, 4-((1-methyl-1H-imidazol-5-yl)((3′,4′,5-trichloro(1,1′-biphenyl)-2-yl)methoxy)methyl)benzonitrile]
The inhibition at 0.1 µM of the first is lower: 73% for the first, over 85% for the second.

Compared with `Cn1cncc1C(OCc1ccc(Cl)cc1-c1ccccc1Cl)c1ccc(C#N)cc1` (centres unmarked) [Example 3, 4-(((2′,5-dichloro(1,1′-biphenyl)-2-yl)methoxy)(1-methyl-1H-imidazol-5-yl)methyl)benzonitrile], `Cc1ccccc1-c1cc(Cl)ccc1COC(c1ccc(C#N)cc1)c1cncn1C` (centres unmarked) [Example 4, 4-(((5-chloro-2′-methyl(1,1′-biphenyl)-2-yl)methoxy)(1-methyl-1H-imidazol-5-yl)methyl)benzonitrile] is lower in inhibition at 0.1 µM: 90% for the first, 89% for the second.

Compared with `COc1ccccc1-c1cc(Cl)ccc1COC(c1ccc(C#N)cc1)c1cncn1C` (centres unmarked) [Example 5, 4-(((5-chloro-2′-methoxy(1,1′-biphenyl)-2-yl)methoxy)(1-methyl-1H-imidazol-5-yl)methyl)benzonitrile], `CC(=O)c1ccccc1-c1cc(Cl)ccc1COC(c1ccc(C#N)cc1)c1cncn1C` (centres unmarked) [Example 15, 4-(((2′-acetyl-5-chloro(1,1′-biphenyl)-2-yl)methoxy)(1-methyl-1H-imidazol-5-yl)methyl)benzonitrile] is higher in inhibition at 0.1 µM: 79% for the first, 82% for the second.

`Cn1cncc1C(OCc1ccc(Cl)cc1-c1cccc(Cl)c1)c1ccc(C#N)cc1` (centres unmarked) [Example 6, 4-(((3′,5-dichloro(1,1′-biphenyl)-2-yl)methoxy)(1-methyl-1H-imidazol-5-yl)methyl)benzonitrile] and `Cc1cccc(-c2cc(Cl)ccc2COC(c2ccc(C#N)cc2)c2cncn2C)c1` (centres unmarked) [Example 7, 4-(((5-chloro-3′-methyl(1,1′-biphenyl)-2-yl)methoxy)(1-methyl-1H-imidazol-5-yl)methyl)benzonitrile] cannot be ordered by inhibition at 0.1 µM: over 91% for the first, over 85% for the second.

Compared with `Cn1cncc1C(OCc1ccc(Cl)cc1-c1cccc(C(F)(F)F)c1)c1ccc(C#N)cc1` (centres unmarked) [Example 8, 4-(((5-chloro-3′-(trifluoromethyl)(1,1′-biphenyl)-2-yl)methoxy)(1-methyl-1H-imidazol-5-yl)methyl)benzonitrile], `Cn1cncc1C(OCc1ccc(Cl)cc1-c1cccc(F)c1)c1ccc(C#N)cc1` (centres unmarked) [Example 10, 4-(((5-chloro-3′-fluoro(1,1′-biphenyl)-2-yl)methoxy)(1-methyl-1H-imidazol-5-yl)methyl)benzonitrile] is lower in inhibition at 0.1 µM: 96% for the first, 94% for the second.

`COc1cccc(-c2cc(Cl)ccc2COC(c2ccc(C#N)cc2)c2cncn2C)c1` (centres unmarked) [Example 9, 4-(((5-chloro-3′-methoxy(1,1′-biphenyl)-2-yl)methoxy)(1-methyl-1H-imidazol-5-yl)methyl)benzonitrile] and `CCOc1cccc(-c2cc(Cl)ccc2COC(c2ccc(C#N)cc2)c2cncn2C)c1` (centres unmarked) [Example 19, 4-(((5-chloro-3′-ethoxy(1,1′-biphenyl)-2-yl)methoxy)(1-methyl-1H-imidazol-5-yl)methyl)benzonitrile] cannot be ordered by inhibition at 0.1 µM: over 91% for the first, over 95% for the second.

`Cn1cncc1C(OCc1ccc(Cl)cc1-c1ccc(Cl)cc1)c1ccc(C#N)cc1` (centres unmarked) [Example 11, 4-(((4′,5-dichloro(1,1′-biphenyl)-2-yl)methoxy)(1-methyl-1H-imidazol-5-yl)methyl)benzonitrile] and `CC(=O)c1ccc(-c2cc(Cl)ccc2COC(c2ccc(C#N)cc2)c2cncn2C)cc1` (centres unmarked) [Example 16, 4-(((4′-acetyl-5-chloro(1,1′-biphenyl)-2-yl)methoxy)(1-methyl-1H-imidazol-5-yl)methyl)benzonitrile] cannot be ordered by inhibition at 0.1 µM: 92% for the first, over 83% for the second.

First: Cn1cncc1C(OCc1ccc(Cl)cc1-c1cccc2ccccc12)c1ccc(C#N)cc1 (centres unmarked) [Example 12, 4-(((4-chloro-2-(1-naphthyl)benzyl)oxy)(1-methyl-1H-imidazol-5-yl)methyl)benzonitrile]
Second: Cn1cncc1C(OCc1ccc(Cl)cc1-c1cccc(Cl)c1Cl)c1ccc(C#N)cc1 (centres unmarked) [Example 25, 4-((1-methyl-1H-imidazol-5-yl)((2′, 3′,5-trichloro(1,1′-biphenyl)-2-yl)methoxy)methyl)benzonitrile]
The inhibition at 0.1 µM of the first is higher: 92% for the first, 87% for the second.

First: Cn1cncc1C(OCc1ccc(Cl)cc1-c1cccc(N)c1)c1ccc(C#N)cc1 (centres unmarked) [Example 13, 4-(((3′-amino-5-chloro(1,1′-biphenyl)-2-yl)methoxy)(1-methyl-1H-imidazol-5-yl)methyl)benzonitrile]
Second: Cn1cncc1C(OCc1ccc(Cl)cc1-c1cccc(C#N)c1)c1ccc(C#N)cc1 (centres unmarked) [Example 14, 3′-chloro-6′-(((4-cyanophenyl)(1-methyl-1H-imidazol-5-yl)methoxy)methyl)(1,1′-biphenyl)-3-carbonitrile]
The inhibition at 0.1 µM of the first is lower: 84% for the first, 96% for the second.

`Cc1ccc(-c2cc(Cl)ccc2COC(c2ccc(C#N)cc2)c2cncn2C)cc1C` (centres unmarked) [Example 17, 4-(((5-chloro-3′,4′-dimethyl(1,1′-biphenyl)-2-yl)methoxy)(1-methyl-1H-imidazol-5-yl)methyl)benzonitrile] and `COc1ccc(-c2cc(Cl)ccc2COC(c2ccc(C#N)cc2)c2cncn2C)cc1OC` (centres unmarked) [Example 21, 4-(((5-chloro-3′,4′-dimethoxy(1,1′-biphenyl)-2-yl)methoxy)(1-methyl-1H-imidazol-5-yl)methyl)benzonitrile] cannot be ordered by inhibition at 0.1 µM: over 85% for the first, 91% for the second.

First: Cn1cncc1C(OCc1ccc(Cl)cc1-c1ccc(C(C)(C)C)cc1)c1ccc(C#N)cc1 (centres unmarked) [Example 18, 4-(((4′-tert-butyl-5-chloro(1,1′-biphenyl)-2-yl)methoxy)(1-methyl-1H-imidazol-5-yl)methyl)benzonitrile]
Second: Cn1cncc1C(OCc1ccc(Cl)cc1-c1cccc(C=O)c1)c1ccc(C#N)cc1 (centres unmarked) [Example 30, 4-(((5-chloro-3′-formyl(1,1′-biphenyl)-2-yl)methoxy)(1-methyl-1H-imidazol-5-yl)methyl)benzonitrile]
The inhibition at 0.1 µM of the first is higher: 97% for the first, 92% for the second.

`COc1ccc(OC)c(-c2cc(Cl)ccc2COC(c2ccc(C#N)cc2)c2cncn2C)c1` (centres unmarked) [Example 20, 4-(((5-chloro-2′,5′-dimethoxy(1,1′-biphenyl)-2-yl)methoxy)(1-methyl-1H-imidazol-5-yl)methyl)benzonitrile] and `COc1cc(-c2cc(Cl)ccc2COC(c2ccc(C#N)cc2)c2cncn2C)cc(OC)c1OC` (centres unmarked) [Example 24, 4-(((5-chloro-3′,4′,5′-trimethoxy(1,1′-biphenyl)-2-yl)methoxy)(1-methyl-1H-imidazol-5-yl)methyl)benzonitrile] are the same in inhibition at 0.1 µM: 94% for the first, 94% for the second.

Going from `CC(=O)Nc1cccc(-c2cc(Cl)ccc2COC(c2ccc(C#N)cc2)c2cncn2C)c1` (centres unmarked) [Example 22, N-(5′-chloro-2′-(((4-cyanophenyl)(1-methyl-1H-imidazol-5-yl)methoxy)methyl)(1,1′-biphenyl)-3-yl)acetamide] to `Cn1cncc1C(OCc1ccc(Cl)cc1-c1ccc2c(c1)OCO2)c1ccc(C#N)cc1` (centres unmarked) [Example 23, 4-(((2-(1,3-benzodioxol-5-yl)-4-chlorobenzyl)oxy)(1-methyl-1H-imidazol-5-yl)methyl)benzonitrile], the inhibition at 0.1 µM rises from 64% to over 92%.

Going from `Cn1cncc1C(OCc1ccc(Cl)cc1-c1cc(Cl)cc(Cl)c1)c1ccc(C#N)cc1` (centres unmarked) [Example 27, 4-((1-methyl-1H-imidazol-5-yl)((3′,5,5′-trichloro(1,1′-biphenyl)-2-yl)methoxy)methyl)benzonitrile] to `Cn1cncc1C(OCc1ccc(Cl)cc1-c1ccc(C=O)s1)c1ccc(C#N)cc1` (centres unmarked) [Example 29, 4-(((4-chloro-2-(5-formyl-2-thienyl)benzyl)oxy)(1-methyl-1H-imidazol-5-yl)methyl)benzonitrile], the inhibition at 0.1 µM rises from 47% to 92%.

`CCOc1cccc(-c2cc(C#N)ccc2COC(c2ccc(C#N)cc2)c2cncn2C)c1` (centres unmarked) [Example 32, 6-(((4-cyanophenyl)(1-methyl-1H-imidazol-5-yl)methoxy)methyl)-3′-ethoxy(1,1′-biphenyl)-3-carbonitrile] and `Cn1cncc1C(OCc1ccc(C#N)cc1-c1ccc2c(c1)OCO2)c1ccc(C#N)cc1` (centres unmarked) [Example 33, 3-(1,3-benzodioxol-5-yl)-4-(((4-cyanophenyl)(1-methyl-1H-imidazol-5-yl)methoxy)methyl)benzonitrile] cannot be ordered by inhibition at 0.1 µM: over 98% for the first, over 98% for the second.

Same assay, conditions: test compound at 10^−9 M (stated in the cell); 3H-farnesyldiphosphate 0.6 μM, H-Ras 5.0 μM, 37° C., 30 minutes

For `Cn1cncc1[C@](O)(COc1ccc(C#N)cc1-c1ccc(OC(F)(F)F)cc1)c1ccc(C#N)cc1` (single isomer, unassigned) [Example 93], the “% Inhibition at 10^−9 M” value was 90 (10^−9M) %.
